Test results published in ChEMBL document CHEMBL1147945, “R-isomers of Arg-Gly-Asp (RGD) mimics as potent alphavbeta3 inhibitors” (Bioorg Med Chem, 2007).

Tests used:
Integrin alpha-V/beta-3 = Integrin alpha-V/beta-3 (Homo sapiens, UniProt P05106+P06756); assay: Inhibition of alphaVbeta3 integrin receptor expressed in human 293 cells; format: cell-based, HEK293
Integrin alpha-V/beta-6 [1] = molecular target: T1, Integrin alpha-V/beta-6 (Homo sapiens, UniProt P06756+P18564); assay: Inhibition of alpha-V-beta-6 integrin receptor in human HT29 cells; format: cell-based, HT-29
Integrin alpha-V/beta-6 [2] = molecular target: T1, Integrin alpha-V/beta-6; assay: Inhibition of alpha-V-beta-6 integrin receptor in human 293 cells; format: cell-based, HEK293
[3] = Bioavailability in mouse at 20 mg/kg, po; format: ADME, organism-based; conditions: in vivo
[4] = Half life in mouse at 20 mg/kg po or 10 mg/kg iv; format: ADME, organism-based; conditions: in vivo

Chain of Integrin alpha-V/beta-3 (P05106 27-788 limits assumed): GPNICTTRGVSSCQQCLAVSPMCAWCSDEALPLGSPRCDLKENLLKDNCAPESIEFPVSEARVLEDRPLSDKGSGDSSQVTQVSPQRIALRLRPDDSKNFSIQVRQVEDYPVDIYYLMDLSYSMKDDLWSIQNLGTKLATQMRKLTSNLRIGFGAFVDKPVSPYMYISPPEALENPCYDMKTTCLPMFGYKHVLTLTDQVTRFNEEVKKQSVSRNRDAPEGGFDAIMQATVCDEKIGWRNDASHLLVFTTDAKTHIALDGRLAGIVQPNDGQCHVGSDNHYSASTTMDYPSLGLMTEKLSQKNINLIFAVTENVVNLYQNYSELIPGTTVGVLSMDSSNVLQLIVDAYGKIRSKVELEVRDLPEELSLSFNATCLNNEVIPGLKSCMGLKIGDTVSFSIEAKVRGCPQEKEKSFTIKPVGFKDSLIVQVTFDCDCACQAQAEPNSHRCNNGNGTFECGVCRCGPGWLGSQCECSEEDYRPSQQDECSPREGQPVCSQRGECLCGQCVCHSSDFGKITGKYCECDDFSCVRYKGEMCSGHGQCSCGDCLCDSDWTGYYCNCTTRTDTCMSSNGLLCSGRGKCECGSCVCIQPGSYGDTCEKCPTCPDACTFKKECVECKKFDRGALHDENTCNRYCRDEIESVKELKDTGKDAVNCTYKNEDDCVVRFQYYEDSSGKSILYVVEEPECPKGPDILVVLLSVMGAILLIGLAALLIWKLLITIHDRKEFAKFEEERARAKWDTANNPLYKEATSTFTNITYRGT
Chain of Integrin alpha-V/beta-3 (P06756 31-889 limits assumed): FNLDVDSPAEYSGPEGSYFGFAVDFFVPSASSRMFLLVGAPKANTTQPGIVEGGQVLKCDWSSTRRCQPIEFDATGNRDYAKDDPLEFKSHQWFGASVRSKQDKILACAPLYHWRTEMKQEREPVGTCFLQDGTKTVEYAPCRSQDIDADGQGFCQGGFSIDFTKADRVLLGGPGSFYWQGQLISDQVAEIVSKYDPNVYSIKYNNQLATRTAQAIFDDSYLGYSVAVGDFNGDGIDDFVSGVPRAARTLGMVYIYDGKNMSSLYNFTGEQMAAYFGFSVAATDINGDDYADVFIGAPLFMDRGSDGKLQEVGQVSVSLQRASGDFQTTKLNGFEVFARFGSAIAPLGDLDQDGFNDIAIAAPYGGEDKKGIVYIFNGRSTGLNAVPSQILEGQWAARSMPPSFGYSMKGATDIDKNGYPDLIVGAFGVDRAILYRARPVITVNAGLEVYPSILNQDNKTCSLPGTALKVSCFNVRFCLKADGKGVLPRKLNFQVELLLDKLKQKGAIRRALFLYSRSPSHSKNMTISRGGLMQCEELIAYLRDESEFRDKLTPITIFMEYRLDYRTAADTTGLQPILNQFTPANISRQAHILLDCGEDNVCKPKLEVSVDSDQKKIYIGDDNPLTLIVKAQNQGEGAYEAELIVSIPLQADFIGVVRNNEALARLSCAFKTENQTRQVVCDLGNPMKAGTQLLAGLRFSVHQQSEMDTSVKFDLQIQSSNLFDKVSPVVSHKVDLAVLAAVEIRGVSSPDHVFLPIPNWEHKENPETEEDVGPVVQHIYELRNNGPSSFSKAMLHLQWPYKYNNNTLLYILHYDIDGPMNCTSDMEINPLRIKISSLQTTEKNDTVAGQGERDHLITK
Chain of Integrin alpha-V/beta-3 (P06756 891-1048 limits assumed): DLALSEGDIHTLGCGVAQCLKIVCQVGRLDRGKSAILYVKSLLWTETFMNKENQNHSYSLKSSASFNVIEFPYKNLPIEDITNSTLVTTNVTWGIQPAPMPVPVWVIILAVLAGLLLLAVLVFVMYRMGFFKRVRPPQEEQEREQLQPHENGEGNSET
T1 sequence (P06756 31-889 limits assumed): as the sequence (P06756 31-889 limits assumed) above
T1 sequence (P06756 891-1048 limits assumed): as the sequence (P06756 891-1048 limits assumed) above
T1 sequence (P18564 22-788 limits assumed): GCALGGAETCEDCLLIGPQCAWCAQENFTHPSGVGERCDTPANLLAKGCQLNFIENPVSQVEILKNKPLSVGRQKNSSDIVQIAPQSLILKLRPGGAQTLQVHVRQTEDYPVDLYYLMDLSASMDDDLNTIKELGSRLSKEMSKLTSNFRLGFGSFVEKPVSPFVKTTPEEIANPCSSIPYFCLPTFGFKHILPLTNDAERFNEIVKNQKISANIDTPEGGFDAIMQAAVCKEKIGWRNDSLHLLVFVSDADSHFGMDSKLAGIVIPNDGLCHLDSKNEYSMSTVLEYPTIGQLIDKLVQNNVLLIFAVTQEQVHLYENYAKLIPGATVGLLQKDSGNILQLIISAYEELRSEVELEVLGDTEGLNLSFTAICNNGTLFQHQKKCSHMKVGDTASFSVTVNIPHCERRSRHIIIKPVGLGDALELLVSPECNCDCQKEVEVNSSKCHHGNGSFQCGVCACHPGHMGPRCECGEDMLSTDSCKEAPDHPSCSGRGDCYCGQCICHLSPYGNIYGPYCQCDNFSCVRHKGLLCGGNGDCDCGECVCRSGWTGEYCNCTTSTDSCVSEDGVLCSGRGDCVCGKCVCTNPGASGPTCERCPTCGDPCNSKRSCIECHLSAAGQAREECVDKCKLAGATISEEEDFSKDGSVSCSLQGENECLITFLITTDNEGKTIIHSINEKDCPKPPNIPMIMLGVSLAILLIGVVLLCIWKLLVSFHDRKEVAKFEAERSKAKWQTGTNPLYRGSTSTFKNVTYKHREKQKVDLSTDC

IC50 (Integrin alpha-V/beta-3) [nM]	IC50 (Integrin alpha-V/beta-6 [1]) [nM]	IC50 (Integrin alpha-V/beta-6 [2]) [nM]	bioavailability [3] [%]	half-life [4] [h]	SMILES
56	49				Cc1cc(C)cc([C@@H](CC(=O)O)NC(=O)CNC(=O)c2cc(O)cc(NC3=NCC(F)CN3)c2)c1 (some centres undefined)
7	588				O=C(O)C[C@@H](NC(=O)CNC(=O)c1cc(O)cc(NC2=NCC(O)CN2)c1)c1cc(Br)cc(Cl)c1O (some centres undefined)
13	11				O=C(O)C[C@@H](NC(=O)CNC(=O)c1cc(O)cc(NC2=NCC(F)CN2)c1)c1cc(Br)cc(I)c1 (some centres undefined)
3	3420				O=C(O)C[C@@H](NC(=O)CNC(=O)c1cc(O)cc(NC2=NCC(F)CN2)c1)c1cc(Br)cc(Br)c1O (some centres undefined)
11	40				O=C(O)C[C@@H](NC(=O)CNC(=O)c1cc(O)cc(NC2=NCC(F)CN2)c1)c1cc(Cl)cc(Cl)c1 (some centres undefined)
3	71				O=C(O)C[C@@H](NC(=O)CNC(=O)c1cc(O)cc(NC2=NCC(F)CN2)c1)c1cc(Br)cc(Cl)c1O (some centres undefined)
21	96				O=C(O)C[C@@H](NC(=O)CNC(=O)c1cc(O)cc(NC2=NCC(O)CN2)c1)c1cc(Br)cc(Br)c1O (some centres undefined)
3	3440				Nc1cc(NC2=NCC(F)CN2)cc(C(=O)NCC(=O)N[C@H](CC(=O)O)c2cc(Cl)cc(Br)c2O)c1 (some centres undefined)
0.7	1830				O=C(O)C[C@@H](NC(=O)CNC(=O)c1cncc(NC2=NCC(F)CN2)c1)c1cc(Cl)cc(Br)c1O (some centres undefined)
2.6					O=C(O)C[C@H](NC(=O)CNC(=O)c1cc(O)cc(NC2=NCC(O)CN2)c1)c1cc(Cl)cc(Br)c1O (some centres undefined)
0.2					O=C(O)C[C@H](NC(=O)CNC(=O)c1cccc(NC2=NCC(F)CN2)c1)c1cc(Cl)cc(Br)c1O (some centres undefined)
2	25				O=C(O)C[C@@H](NC(=O)CNC(=O)c1cccc(NC2=NCC(F)CN2)c1)c1cc(Br)cc(Cl)c1O (some centres undefined)
3		52			O=C(O)C[C@@H](NC(=O)CNC(=O)c1cc(O)cc(NC2=NCC(O)CN2)c1)c1cc(Cl)cc(Br)c1O (some centres undefined)
5	57				O=C(O)C[C@@H](NC(=O)CNC(=O)c1cc(O)cc(NC2=NCC(F)CN2)c1)c1cc(Cl)cc(Br)c1 (some centres undefined)
3		164			O=C(O)C[C@@H](NC(=O)CNC(=O)c1cc(O)cc(NC2=NCC(F)CN2)c1)c1cc(Cl)cc(I)c1O (some centres undefined)
0.2					Cc1cc(Cl)cc([C@H](CC(=O)O)NC(=O)CNC(=O)c2cc(O)cc(NC3=NCC(O)CN3)c2)c1O (some centres undefined)
0.4					O=C(O)C[C@H](NC(=O)CNC(=O)c1cncc(NC2=NCC(F)CN2)c1)c1cc(Cl)cc(Br)c1O (some centres undefined)
18	688				Cc1cc(Cl)cc([C@@H](CC(=O)O)NC(=O)CNC(=O)c2cc(O)cc(NC3=NCC(O)CN3)c2)c1O (some centres undefined)
5	20				O=C(O)C[C@@H](NC(=O)CNC(=O)c1cc(O)cc(NC2=NCC(F)CN2)c1)c1cc(Br)cc(Br)c1 (some centres undefined)
1	42				O=C(O)C[C@@H](NC(=O)CNC(=O)c1cc(O)cc(NC2=NCC(F)CN2)c1)c1cc(Cl)cc(Cl)c1O (some centres undefined)

The next lines start with the compound.

SMILES	IC50 (Integrin alpha-V/beta-3) [nM]	IC50 (Integrin alpha-V/beta-6 [1]) [nM]	IC50 (Integrin alpha-V/beta-6 [2]) [nM]	bioavailability [3] [%]	half-life [4] [h]
O=C(O)C[C@@H](NC(=O)CNC(=O)c1cc(O)cc(NC2=NCCCN2)c1)c1cc(Cl)cc(I)c1O	9		1780		
Cc1cc(C)c(O)c([C@@H](CC(=O)O)NC(=O)CNC(=O)c2cc(N)cc(NC3=NCC(F)CN3)c2)c1 (some centres undefined)	10	65			
O=C(O)C[C@@H](NC(=O)CNC(=O)c1cncc(NC2=NCC(O)CN2)c1)c1cc(Br)cc(Cl)c1O (some centres undefined)	1	22800			
O=C(O)C[C@H](NC(=O)CNC(=O)c1cc(O)cc(NC2=NCCCN2)c1)c1cc(Cl)cc(Cl)c1O	0.9				
O=C(O)C[C@H](NC(=O)CNC(=O)c1cncc(N=C2NCC(O)CN2)c1)c1cc(Cl)cc(Br)c1O (some centres undefined)	0.4				
O=C(O)C[C@@H](NC(=O)CNC(=O)c1cccc(NC2=NCCCN2)c1)c1cc(Cl)cc(Br)c1O	5	6540			
O=C(O)C[C@@H](NC(=O)CNC(=O)c1cccc(NC2=NCC(O)CN2)c1)c1cc(Br)cc(Br)c1O (some centres undefined)	10	25			
O=C(O)C[C@@H](NC(=O)CNC(=O)c1cccc(N=C2NCC(F)CN2)c1)c1cc(Cl)cc(Cl)c1O (some centres undefined)	1	16			
Nc1cc(NC2=NCC(O)CN2)cc(C(=O)NCC(=O)N[C@H](CC(=O)O)c2cc(Br)cc(Br)c2O)c1 (some centres undefined)	7	2790			
Nc1cc(NC2=NCC(O)CN2)cc(C(=O)NCC(=O)N[C@H](CC(=O)O)c2cc(Cl)cc(Br)c2O)c1 (some centres undefined)	22	8620			
O=C(O)C[C@@H](NC(=O)CNC(=O)c1cc(O)cc(NC2=NCCCN2)c1)c1cc(Br)cc(Cl)c1O	10	151			
O=C(O)C[C@@H](NC(=O)CNC(=O)c1cc(O)cc(NC2=NCC(F)(F)CN2)c1)c1cc(Cl)cc(Br)c1O	5	7260			
O=C(O)C[C@@H](NC(=O)CNC(=O)c1cc(O)cc(NC2=NCC(O)CN2)c1)c1cc(Cl)cc(I)c1O (some centres undefined)	3	631			
O=C(O)C[C@H](NC(=O)CNC(=O)c1cncc(NC2=NCC(O)CN2)c1)c1cc(Br)cc(Cl)c1O (some centres undefined)	0.3				
Nc1cc(NC2=NCC(O)CN2)cc(C(=O)NCC(=O)N[C@H](CC(=O)O)c2cc(Br)cc(Cl)c2O)c1 (some centres undefined)	33	216			
O=C(O)C[C@@H](NC(=O)CNC(=O)c1cncc(NC2=NCC(O)CN2)c1)c1cc(Cl)cc(I)c1O (some centres undefined)	1		622		
Nc1cc(NC2=NCC(O)CN2)cc(C(=O)NCC(=O)N[C@H](CC(=O)O)c2cc(Cl)cc(I)c2O)c1 (some centres undefined)	0.3	12300			
O=C(O)C[C@@H](NC(=O)CNC(=O)c1cccc(NC2=NCC(O)CN2)c1)c1cc(Cl)cc(I)c1O (some centres undefined)	1	11500			
O=C(O)C[C@@H](NC(=O)CNC(=O)c1cccc(N=C2NCC(F)CN2)c1)c1cc(Cl)cc(Br)c1O (some centres undefined)	1	1420			
O=C(O)C[C@H](NC(=O)CNC(=O)c1cc(O)cc(N=C2NCC(O)CN2)c1)c1cc(Cl)cc(Cl)c1O (some centres undefined)	0.9				
O=C(O)C[C@@H](NC(=O)CNC(=O)c1cncc(NC2=NCC(O)CN2)c1)c1cc(Br)cc(Br)c1O (some centres undefined)	2	1760			
O=C(O)C[C@@H](NC(=O)CNC(=O)c1cccc(NC2=NCC(O)CN2)c1)c1cc(Cl)cc(Cl)c1O (some centres undefined)	0.7		20		
O=C(O)C[C@H](NC(=O)CNC(=O)c1cccc(NC2=NCC(O)CN2)c1)c1cc(Cl)cc(Br)c1O (some centres undefined)	0.6				

SMILES	IC50 (Integrin alpha-V/beta-3) [nM]	IC50 (Integrin alpha-V/beta-6 [1]) [nM]	IC50 (Integrin alpha-V/beta-6 [2]) [nM]	bioavailability [3] [%]	half-life [4] [h]
O=C(O)C[C@H](NC(=O)CNC(=O)c1cc(O)cc(N=C2NCC(F)(F)CN2)c1)c1cc(Cl)cc(Br)c1O	5				
O=C(O)C[C@@H](NC(=O)CNC(=O)c1cncc(NC2=NCC(F)CN2)c1)c1cc(Cl)cc(Cl)c1O (some centres undefined)	1	14			
O=C(O)C[C@@H](NC(=O)CNC(=O)c1cc(O)cc(NC2=NCCCN2)c1)c1cc(Cl)cc(Cl)c1O	3	3000			
Cc1cc(C)c(O)c([C@@H](CC(=O)O)NC(=O)CNC(=O)c2cc(O)cc(NC3=NCC(O)CN3)c2)c1 (some centres undefined)	54	118			
O=C(O)C[C@@H](NC(=O)CNC(=O)c1cccc(NC2=NCCCN2)c1)c1cc(Br)cc(Cl)c1O	8	88			
O=C(O)C[C@H](NC(=O)CNC(=O)c1cc(O)cc(NC2=NCC(O)CN2)c1)c1cc(Cl)cc(I)c1O (some centres undefined)	6.4				
O=C(O)C[C@@H](NC(=O)CNC(=O)c1cccc(NC2=NCCCN2)c1)c1cc(Cl)cc(I)c1O	7	10000			
O=C(O)C[C@@H](NC(=O)CNC(=O)c1cc(O)cc(NC2=NCC(O)CN2)c1)c1cc(Cl)cc(Cl)c1O (some centres undefined)	3		64		
O=C(O)C[C@H](NC(=O)CNC(=O)c1cc(O)cc(N=C2NCC(F)CN2)c1)c1cc(Cl)cc(Br)c1O (some centres undefined)	0.6			13.6	5.1
O=C(O)C[C@@H](NC(=O)CNC(=O)c1cncc(NC2=NCC(O)CN2)c1)c1cc(Cl)cc(Br)c1O (some centres undefined)	1		615		
Cc1cc(C)c(O)c([C@H](CC(=O)O)NC(=O)CNC(=O)c2cc(O)cc(NC3=NCC(O)CN3)c2)c1 (some centres undefined)	1				
O=C(O)C[C@@H](NC(=O)CNC(=O)c1cccc(NC2=NCCCN2)c1)c1cc(Cl)cc(Cl)c1O	4	24			
O=C(O)C[C@H](NC(=O)CNC(=O)c1cccc(NC2=NCCCN2)c1)c1cc(Cl)cc(Br)c1O	2				
O=C(O)C[C@H](NC(=O)CNC(=O)c1cccc(NC2=NCC(O)CN2)c1)c1cc(Cl)cc(Cl)c1O (some centres undefined)	0.3				
O=C(O)C[C@@H](NC(=O)CNC(=O)c1cccc(NC2=NCC(O)CN2)c1)c1cc(Cl)cc(Br)c1O (some centres undefined)	5	3530			
O=C(O)C[C@H](NC(=O)CNC(=O)c1cc(O)cc(N=C2NCC(O)CN2)c1)c1cc(Br)cc(Cl)c1O (some centres undefined)	2.7				
O=C(O)C[C@@H](NC(=O)CNC(=O)c1cc(O)cc(NC2=NCCCN2)c1)c1cc(Cl)cc(Br)c1O	10	2740			
O=C(O)C[C@H](NC(=O)CNC(=O)c1cccc(N=C2NCC(O)CN2)c1)c1cc(Cl)cc(I)c1O (some centres undefined)	1.6				
O=C(O)C[C@@H](NC(=O)CNC(=O)c1cc(O)cc(N=C2NCCCN2)c1)c1cc(Br)cc(Br)c1O	20	204			
O=C(O)C[C@H](NC(=O)CNC(=O)c1cc(O)cc(NC2=NCCCN2)c1)c1cc(Cl)cc(Br)c1O	2				
O=C(O)C[C@@H](NC(=O)CNC(=O)c1cccc(NC2=NCCCN2)c1)c1cc(Br)cc(Br)c1O	4	3210			
O=C(O)C[C@@H](NC(=O)CNC(=O)c1cccc(NC2=NCC(O)CN2)c1)c1cc(Br)cc(Cl)c1O (some centres undefined)	8	48			
